Data published in PMC10302047, “Structure–Activity Relationship Studies of Indolglyoxyl-Polyamine Conjugates as Antimicrobials and Antibiotic Potentiators” (Pharmaceuticals, 2023).
In brackets after ≈: the same amount, converted by molar mass.

What was measured:
[1] = tested on: MRSA ATCC 43300; experiment: Antimicrobial susceptibility (MIC), MRSA; type: cell-based; settings: Staphylococcus aureus; MRSA ATCC 43300; mean (n = 2); read-out: MIC MRSA
Method: (§1) The susceptibility of bacterial strains S. aureus (ATCC 25923), E. coli (ATCC 25922) and P. aeruginosa (ATCC 27853) to antibiotics and compounds was determined according to previously reported protocols. Additional antimicrobial evaluation against MRSA (ATCC 43300) and C. albicans (ATCC 90028) was undertaken at the Community for Open Antimicrobial Drug Discovery at The University of Queensland (Australia) according to their standard protocols as reported previously.

[2] = tested on: E. coli ATCC 25922; experiment: Antimicrobial susceptibility (MIC), E. coli; type: cell-based; settings: Escherichia coli, ATCC25922, mean (n = 3)
Method: as §1

[3] = tested on: S. aureus ATCC 25923; experiment: Antimicrobial susceptibility (MIC), S. aureus; type: cell-based, Staphylococcus aureus; settings: Staphylococcus aureus, ATCC25923; S. aureus ATCC 25923; mean (n = 3)
Method: as §1

[4] = tested on: C. albicans ATCC 90028; experiment: Antifungal susceptibility (MIC), C. albicans; type: cell-based; settings: Candida albicans, ATCC90028, mean (n = 2)
Method: as §1

[5] = tested on: P. aeruginosa ATCC 27853; experiment: Antimicrobial susceptibility (MIC), P. aeruginosa; type: cell-based; settings: Pseudomonas aeruginosa, ATCC27853, mean (n = 3), read-out: MIC P. a
Method: as §1

[6] = tested on: human red blood cells; experiment: Hemolytic assay; type: cell-based; settings: mean (n = 2)
Method: Hemolysis assays were conducted according to previously reported protocols.

[7] = Cytotoxicity assay HEK293; type: cell-based, human; settings: human, HEK293 cells, mean (n = 2), read-out: Cyto. IC50 (concentration of compound at 50% cytotoxicity)
Method: Cytotoxicity assays were conducted according to previously reported protocols.

[8] = tested on: P. aeruginosa ATCC 27853; experiment: Antibiotic potentiation (MIC of antibiotics in the presence of synergizing compounds), P. aeruginosa; type: cell-based, Pseudomonas aeruginosa; settings: concentration required to restore doxycycline activity at 2 µg/mL (4.5 µM) against P. aeruginosa ATCC 27853

MIC [1]	MIC [2]	MIC [3]	MIC [4]	MIC [5]	SMILES	Hem. HC10 (concentration of compound at 10% hemolytic activity) [6]	IC50 [7]	Conc (µM) for Potentiation of doxycycline [8]
8.1 µM	> 200 µM	25 µM	32 µM	> 200 µM	O=C(NCCCNCCCCCCCCNCCCNC(=O)C(=O)c1c[nH]c2ccc(Br)cc12)C(=O)c1c[nH]c2ccc(Br)cc12.O=C(O)C(F)(F)F.O=C(O)C(F)(F)F [Compound 18c, N^1,N^8-Bis(3-(2-(5-bromo-1H-indol-3-yl)-2-oxoacetamido)propyl)octane-1,8-diaminium 2,2,2-trifluoroacetate]	>32 µM	18 µM	>200 µM
3.84 µM	24 µM	5.99 µM	31 µM	96 µM	O=C(NCCCNCCCCCCCCCCCCNCCCNC(=O)C(=O)c1c[nH]c2ccc(Br)cc12)C(=O)c1c[nH]c2ccc(Br)cc12.O=C(O)C(F)(F)F.O=C(O)C(F)(F)F [Compound 18e, N^1,N^12-Bis(3-(2-(5-bromo-1H-indol-3-yl)-2-oxoacetamido)propyl)dodecane-1,12-diaminium 2,2,2-trifluoroacetate]	20 µM	8.6 µM	24 µM
4.1 µM	51 µM	6.4 µM	16 µM	51 µM	O=C(NCCCNCCCCCCCNCCCNC(=O)C(=O)c1c[nH]c2ccc(Br)cc12)C(=O)c1c[nH]c2ccc(Br)cc12.O=C(O)C(F)(F)F.O=C(O)C(F)(F)F [Compound 18b, N^1,N^7-Bis(3-(2-(5-bromo-1H-indol-3-yl)-2-oxoacetamido)propyl)heptane-1,7-diaminium 2,2,2-trifluoroacetate]	>33 µM	13 µM	12.9 µM
> 37 µM	200 µM	25 µM	> 37 µM	800 µM	COc1cccc2c(C(=O)C(=O)NCCCNCCCCCCCNCCCNC(=O)C(=O)c3c[nH]c4c(OC)cccc34)c[nH]c12.O=C(O)C(F)(F)F.O=C(O)C(F)(F)F [Compound 22b, N^1,N^7-Bis(3-(2-(7-methoxy-1H-indol-3-yl)-2-oxoacetamido)propyl)heptane-1,7-diaminium 2,2,2-trifluoroacetate]	>37 µM	8.9 µM	100 µM
≤ 0.27 µM	50 µM	25 µM	17 µM	800 µM	COc1cccc2c(C(=O)C(=O)NCCCNCCCCCCCCCCNCCCNC(=O)C(=O)c3c[nH]c4c(OC)cccc34)c[nH]c12.O=C(O)C(F)(F)F.O=C(O)C(F)(F)F [Compound 22d, N^1,N^10-Bis(3-(2-(7-methoxy-1H-indol-3-yl)-2-oxoacetamido)propyl)decane-1,10-diaminium 2,2,2-trifluoroacetate]	8.4 µM	> 35 µM	400 µM
37 µM	> 200 µM	57 µM	37 µM	> 200 µM	COc1ccc2[nH]cc(C(=O)C(=O)NCCCNCCCCCCCNCCCNC(=O)C(=O)c3c[nH]c4ccc(OC)cc34)c2c1.O=C(O)C(F)(F)F.O=C(O)C(F)(F)F [Compound 19b, N^1,N^7-Bis(3-(2-(5-methoxy-1H-indol-3-yl)-2-oxoacetamido)propyl)heptane-1,7-diaminium 2,2,2-trifluoroacetate]	>37 µM	> 37 µM	114 µM
4.48 µM	6.25 µM	3.12 µM	36 µM	> 200 µM	O=C(NCCCNCCCCCCCCCCNCCCNC(=O)C(=O)c1c[nH]c2c(F)cccc12)C(=O)c1c[nH]c2c(F)cccc12.O=C(O)C(F)(F)F.O=C(O)C(F)(F)F [Compound 21d, N^1,N^10-Bis(3-(2-(7-fluoro-1H-indol-3-yl)-2-oxoacetamido)propyl)decane-1,10-diaminium 2,2,2-trifluoroacetate]	>36 µM	4.7 µM	100 µM
18.8 µM	> 200 µM	7.3 µM	38 µM	> 200 µM	O=C(NCCCNCCCCCCCNCCCNC(=O)C(=O)c1c[nH]c2c(F)cccc12)C(=O)c1c[nH]c2c(F)cccc12.O=C(O)C(F)(F)F.O=C(O)C(F)(F)F [Compound 21b, N^1,N^7-Bis(3-(2-(7-fluoro-1H-indol-3-yl)-2-oxoacetamido)propyl)heptane-1,7-diaminium 2,2,2-trifluoroacetate]	>38 µM	11 µM	7.3 µM
18.7 µM	117 µM	14.6 µM	37 µM	117 µM	O=C(NCCCNCCCCCCCCCCNCCCNC(=O)C(=O)c1c[nH]c2ccccc12)C(=O)c1c[nH]c2ccccc12.O=C(O)C(F)(F)F.O=C(O)C(F)(F)F [Compound 17d, N^1,N^10-Bis(3-(2-(1H-indol-3-yl)-2-oxoacetamido)propyl)decane-1,10-diaminium 2,2,2-trifluoroacetate]	>37 µM	4.9 µM	58 µM
39 µM	25 µM	25 µM	> 39 µM	> 200 µM	O=C(NCCCNCCCCCCCNCCCNC(=O)C(=O)c1c[nH]c2ccccc12)C(=O)c1c[nH]c2ccccc12.O=C(O)C(F)(F)F.O=C(O)C(F)(F)F [Compound 17b, N^1,N^7-Bis(3-(2-(1H-indol-3-yl)-2-oxoacetamido)propyl)heptane-1,7-diaminium 2,2,2-trifluoroacetate]	>39 µM	31 µM	100 µM
9.04 µM (≈ 5.94 µg/mL)	> 200 µM	25 µM (≈ 16.4 µg/mL)	36 µM (≈ 23.6 µg/mL)	> 200 µM	O=C(NCCCNCCCCCCCCCCCCNCCCNC(=O)C(=O)c1c[nH]c2ccccc12)C(=O)c1c[nH]c2ccccc12 [Compound 17e]	>36 µM	5.6 µM	6.25 µM
7.88 µM	98 µM	6.16 µM	32 µM	200 µM	O=C(NCCCNCCCCCCCCCCNCCCNC(=O)C(=O)c1c[nH]c2ccc(Br)cc12)C(=O)c1c[nH]c2ccc(Br)cc12.O=C(O)C(F)(F)F.O=C(O)C(F)(F)F [Compound 18d, N^1,N^10-Bis(3-(2-(5-bromo-1H-indol-3-yl)-2-oxoacetamido)propyl)decane-1,10-diaminium 2,2,2-trifluoroacetate]	>32 µM	16 µM	25 µM
4.34 µM	> 220 µM	27.2 µM	35 µM	> 220 µM	O=C(NCCCNCCCCCCCCCCCCNCCCNC(=O)C(=O)c1c[nH]c2c(F)cccc12)C(=O)c1c[nH]c2c(F)cccc12.O=C(O)C(F)(F)F.O=C(O)C(F)(F)F [Compound 21e, N^1,N^12-Bis(3-(2-(7-fluoro-1H-indol-3-yl)-2-oxoacetamido)propyl)dodecane-1,12-diaminium 2,2,2-trifluoroacetate]	>35 µM	6.4 µM	>200 µM
≤ 0.27 µM	13.7 µM	6.85 µM	≤ 0.27 µM	> 220 µM	Cc1cccc2c(C(=O)C(=O)NCCCNCCCCCCCCCCCCNCCCNC(=O)C(=O)c3c[nH]c4c(C)cccc34)c[nH]c12.O=C(O)C(F)(F)F.O=C(O)C(F)(F)F [Compound 23e, N^1,N^12-Bis(3-(2-(7-methyl-1H-indol-3-yl)-2-oxoacetamido)propyl)dodecane-1,12-diaminium 2,2,2-trifluoroacetate]	8.4 µM	> 35 µM	220 µM
4.17 µM	6.25 µM	1.56 µM	16.7 µM	50 µM	O=C(NCCCNCCCCCCNCCCNC(=O)C(=O)c1c[nH]c2ccc(Br)cc12)C(=O)c1c[nH]c2ccc(Br)cc12.O=C(O)C(F)(F)F.O=C(O)C(F)(F)F [Compound 18a, N^1,N^6-Bis(3-(2-(5-bromo-1H-indol-3-yl)-2-oxoacetamido)propyl)hexane-1,6-diaminium 2,2,2-trifluoroacetate]	>33 µM	8.9 µM	6.5 µM
